Experimental data from patent US9351974B2, “Substituted pteridinones for the treatment of cancer” (OSI Pharmaceuticals, LLC, priority 2011, dated 2016).

Biological target: T1, His-tagged full-length RSK2 (RPS6KA3) (Homo sapiens, UniProt P51812)
T1 construct: His-tagged full-length RSK2 (RPS6KA3, Invitrogen PV3323); His; purchased Invitrogen PV3323
Experiment: RSK2 Omnia Assay for compound IC50 determination
Format: biochemical
Details: ATP 15 μM, n=2, read-out: Mean RSK2 Biochem IC50
Method in brief: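 Continuous fluorescence assay (ex 360/em 485 nm) of SOX-peptide (Omnia ST Peptide 6, 5 μM) phosphorylation with ATP 15 μM (Km 16.3 μM). Enzyme was […], in pH 7.5 HEPES/MgCl2 buffer with 1% DMSO. IC50 came from 11-point threefold dilutions ([…]) by four-parameter fit of initial slopes, in duplicate; Ki by Cheng-Prusoff assuming competitive inhibition.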

T1 sequence (P51812 whole entry): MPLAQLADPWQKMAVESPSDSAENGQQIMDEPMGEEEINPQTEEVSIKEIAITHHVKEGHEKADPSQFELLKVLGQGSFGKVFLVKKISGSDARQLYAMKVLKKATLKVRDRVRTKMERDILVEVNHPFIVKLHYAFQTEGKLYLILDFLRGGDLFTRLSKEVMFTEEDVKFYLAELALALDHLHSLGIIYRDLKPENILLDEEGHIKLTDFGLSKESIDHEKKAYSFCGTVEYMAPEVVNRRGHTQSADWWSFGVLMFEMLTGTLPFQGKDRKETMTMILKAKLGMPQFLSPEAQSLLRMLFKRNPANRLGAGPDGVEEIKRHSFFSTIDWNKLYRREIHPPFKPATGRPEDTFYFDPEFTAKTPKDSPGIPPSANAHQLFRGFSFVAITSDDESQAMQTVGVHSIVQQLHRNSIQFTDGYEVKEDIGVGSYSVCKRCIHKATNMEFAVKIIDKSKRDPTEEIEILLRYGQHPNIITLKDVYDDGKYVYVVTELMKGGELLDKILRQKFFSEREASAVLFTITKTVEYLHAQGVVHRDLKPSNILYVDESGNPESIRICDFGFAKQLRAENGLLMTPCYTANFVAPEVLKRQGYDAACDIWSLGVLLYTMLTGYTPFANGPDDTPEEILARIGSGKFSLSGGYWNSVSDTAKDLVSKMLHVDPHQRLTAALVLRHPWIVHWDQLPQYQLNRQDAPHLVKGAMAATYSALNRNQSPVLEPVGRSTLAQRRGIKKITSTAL

| Molecule | IC50 [nM] |
| --- | --- |
| CC(C)CCN1c2nc(Nc3cc(F)c4[nH]ncc4c3)ncc2N(c2cccc(C#N)c2)C(=O)[C@H]1C [Example 86, 3-[(7R)-2-[(7-fluoro-1H-indazol-5-yl)amino]-7-methyl-8-(3-methylbutyl)-6-oxo-7,8-dihydropteridin-5(6H)-yl]benzonitrile] | ≤ 100 |
| CCOc1ccc(N2C(=O)[C@@H](C)N(C3CCC(F)(F)CC3)c3nc(Nc4ccc5[nH]c(=O)oc5c4)ncc32)cc1C#N [compound 284, 5-[(7R)-8-(4,4-difluorocyclohexyl)-7-methyl-6-oxo-2-[(2-oxo-2,3-dihydro-1,3-benzoxazol-6-yl)amino]-7,8-dihydropteridin-5(6H)-yl]-2-ethoxybenzonitrile] | 100 to 1000 |
| COc1cccc(N2c3nc(Nc4cc(F)c5[nH]ncc5c4)ncc3N(c3cccc(C#N)c3)C(=O)[C@H]2C)c1 [compound 181, 3-[(7R)-2-[(7-fluoro-1H-indazol-5-yl)amino]-8-(3-methoxyphenyl)-7-methyl-6-oxo-7,8-dihydropteridin-5(6H)-yl]benzonitrile] | ≤ 100 |
| CC1C(=O)N(c2ccccc2)c2cnc(Nc3ccc4[nH]ncc4c3)nc2N1c1ccccc1 (stereo not shown) [Example 178, 2-(1H-indazol-5-ylamino)-7-methyl-5,8-diphenyl-7,8-dihydropteridin-6(5H)-one] | ≤ 100 |
| C[C@H]1C(=O)N(c2ccccc2)c2cnc(Nc3ccc4[nH]ncc4c3)nc2N1C1CCCC1 [Example 67, (7S)-8-cyclopentyl-2-(1H-indazol-5-ylamino)-7-methyl-5-phenyl-7,8-dihydropteridin-6(5H)-one] | 100 to 1000 |
| C[C@@H]1C(=O)N(c2cccc(C#N)c2)c2cnc(Nc3ccc4[nH]ncc4c3)nc2N1CC1CCOCC1 [Example 80, 3-[(7R)-2-(1H-indazol-5-ylamino)-7-methyl-6-oxo-8-(tetrahydro-2H-pyran-4-ylmethyl)-7,8-dihydropteridin-5(6H)-yl]benzonitrile] | ≤ 100 |
| Cc1cc(Nc2ncc3c(n2)N(C2CCCCC2)[C@H](C)C(=O)N3c2cccc(C#N)c2)cc2cn[nH]c12 [Example 59, 3-[(7R)-8-cyclohexyl-7-methyl-2-[(7-methyl-1H-indazol-5-yl)amino]-6-oxo-7,8-dihydropteridin-5(6H)-yl]benzonitrile] | 100 to 1000 |
| C[C@@H]1C(=O)N(c2ccn(C)c(=O)c2)c2cnc(Nc3cc(F)c4[nH]ncc4c3)nc2N1C1CCCCC1 [compound 176, (7R)-8-cyclohexyl-2-[(7-fluoro-1H-indazol-5-yl)amino]-7-methyl-5-(1-methyl-2-oxo-1,2-dihydropyridin-4-yl)-7,8-dihydropteridin-6(5H)-one] | ≤ 100 |
| CC[C@@H]1C(=O)N(c2ccc(N(C)C)nc2)c2cnc(Nc3cc(F)c4[nH]ncc4c3)nc2N1C1CCCCC1 [compound 293, (7R)-8-cyclohexyl-5-[6-(dimethylamino)pyridin-3-yl]-7-ethyl-2-[(7-fluoro-1H-indazol-5-yl)amino]-7,8-dihydropteridin-6(5H)-one] | ≤ 100 |
| CO[C@H]1CC[C@H](N2c3nc(Nc4cc(F)c(O)c(F)c4)ncc3N(c3cccc(C#N)c3)C(=O)[C@H]2C)CC1 [compound 232, 3-[(7R)-2-[(3,5-difluoro-4-hydroxyphenyl)amino]-8-(trans-4-methoxycyclohexyl)-7-methyl-6-oxo-7,8-dihydropteridin-5(6H)-yl]benzonitrile] | ≤ 100 |
| CNS(=O)(=O)Cc1ccc(Nc2ncc3c(n2)N(CCC(C)C)C(C)C(=O)N3c2ccccc2)cc1 (stereo not shown) [Example 7, N-methyl-1-(4-{[7-methyl-8-(3-methylbutyl)-6-oxo-5-phenyl-5,6,7,8-tetrahydropteridin-2-yl]amino}phenyl)methanesulfonamide] | > 1000 |
| CC(C)Oc1ccc(N2C(=O)[C@@H](C)N(C3CCOCC3)c3nc(Nc4ccc5[nH]c(=O)oc5c4)ncc32)cc1C#N [compound 199, 5-[(7R)-7-methyl-6-oxo-2-[(2-oxo-2,3-dihydro-1,3-benzoxazol-6-yl)amino]-8-(tetrahydro-2H-pyran-4-yl)-7,8-dihydropteridin-5(6H)-yl]-2-(propan-2-yloxy)benzonitrile] | ≤ 100 |
| (7R)-8-cyclohexyl-2-[(7-fluoro-1H-indazol-5-yl)amino]-7-methyl-5-[4-(morpholin-4-yl)phenyl]-7,8-dihydropteridin-6(5H)-one [compound 134] | ≤ 100 |
| CO[C@H]1CC[C@H](N2c3nc(Nc4cc(F)c5[nH]ncc5c4)ncc3N(c3ccc(N4CCN(C)CC4)nc3)C(=O)[C@H]2C)CC1 [compound 233, (7R)-2-[(7-fluoro-1H-indazol-5-yl)amino]-8-(trans-4-methoxycyclohexyl)-7-methyl-5-[6-(4-methylpiperazin-1-yl)pyridin-3-yl]-7,8-dihydropteridin-6(5H)-one] | ≤ 100 |
| C[C@@H]1C(=O)N(c2cccc(C#N)c2)c2cnc(Nc3ccc(C(=O)O)c(F)c3)nc2N1C1CCC(F)(F)CC1 [compound 271, 4-{[(7R)-5-(3-cyanophenyl)-8-(4,4-difluorocyclohexyl)-7-methyl-6-oxo-5,6,7,8-tetrahydropteridin-2-yl]amino}-2-fluorobenzoic acid] | ≤ 100 |
| CC(C)CCN1c2nc(N[C@H]3CC[C@@H](O)CC3)ncc2N(c2ccccc2)C(=O)C1C (relative stereo) [Example 12, 2-[(cis-4-hydroxycyclohexyl)amino]-7-methyl-8-(3-methylbutyl)-5-phenyl-7,8-dihydropteridin-6(5H)-one] | > 1000 |
| C[C@@H]1C(=O)N(c2cccc(F)c2)c2cnc(Nc3cc(F)c4[nH]ncc4c3)nc2N1C1CCCCC1 [compound 137, (7R)-8-cyclohexyl-2-[(7-fluoro-1H-indazol-5-yl)amino]-5-(3-fluorophenyl)-7-methyl-7,8-dihydropteridin-6(5H)-one] | ≤ 100 |
| C[C@@H]1C(=O)N(c2cccc(C#N)c2)c2cnc(Nc3cnc4[nH]ncc4c3)nc2N1C1CCCCC1 [compound 152, 3-[(7R)-8-cyclohexyl-7-methyl-6-oxo-2-(1H-pyrazolo[3,4-b]pyridin-5-ylamino)-7,8-dihydropteridin-5(6H)-yl]benzonitrile] | ≤ 100 |
| C[C@@H]1C(=O)N(c2cccnc2)c2cnc(Nc3cc(F)c4[nH]ncc4c3)nc2N1C1CCCCC1 [compound 135, (7R)-8-cyclohexyl-2-[(7-fluoro-1H-indazol-5-yl)amino]-7-methyl-5-(pyridin-3-yl)-7,8-dihydropteridin-6(5H)-one] | ≤ 100 |
| CC1C(=O)N(c2ccccc2)c2cnc(Nc3ccc4[nH]ncc4c3)nc2N1C1CCCCC1 (stereo not shown) [Example 61, 8-cyclohexyl-2-(1H-indazol-5-ylamino)-7-methyl-5-phenyl-7,8-dihydropteridin-6(5H)-one] | ≤ 100 |
| C[C@@H]1C(=O)N(c2cccc(C#N)c2)c2cnc(Nc3cc(F)c4[nH]c(=O)oc4c3)nc2N1C1CCCCC1 [compound 169, 3-[(7R)-8-cyclohexyl-2-[(4-fluoro-2-oxo-2,3-dihydro-1,3-benzoxazol-6-yl)amino]-7-methyl-6-oxo-7,8-dihydropteridin-5(6H)-yl]benzonitrile] | ≤ 100 |
| CC[C@@H]1C(=O)N(c2cccc(C#N)c2)c2cnc(Nc3cc(F)c4[nH]ncc4c3)nc2N1C1CCCCC1 [compound 287, 3-[(7R)-8-cyclohexyl-7-ethyl-2-[(7-fluoro-1H-indazol-5-yl)amino]-6-oxo-7,8-dihydropteridin-5(6H)-yl]benzonitrile] | ≤ 100 |
| CC(C)CCN1c2nc(Nc3cc(F)c(O)c(F)c3)ncc2N(c2cccc(C#N)c2)C(=O)[C@H]1C [Example 89, 3-[(7R)-2-[(3,5-difluoro-4-hydroxyphenyl)amino]-7-methyl-8-(3-methylbutyl)-6-oxo-7,8-dihydropteridin-5(6H)-yl]benzonitrile] | ≤ 100 |
| C[C@@H]1C(=O)N(c2ccc(Cl)c(C#N)c2)c2cnc(Nc3ccc4[nH]ncc4c3)nc2N1C1CCCCC1 [compound 105, 2-chloro-5-[(7R)-8-cyclohexyl-2-(1H-indazol-5-ylamino)-7-methyl-6-oxo-7,8-dihydropteridin-5(6H)-yl]benzonitrile] | ≤ 100 |
| C[C@@H]1C(=O)N(c2ccc(N3CCCCC3)nc2)c2cnc(Nc3cc(F)c4[nH]ncc4c3)nc2N1C1CCC(C)(C)CC1 [Example 215, (7R)-8-(4,4-dimethylcyclohexyl)-2-[(7-fluoro-1H-indazol-5-yl)amino]-7-methyl-5-[6-(piperidin-1-yl)pyridin-3-yl]-7,8-dihydropteridin-6(5H)-one] | ≤ 100 |
| COc1ccc(N2C(=O)[C@@H](C)N(C3CCC(F)(F)CC3)c3nc(Nc4cc(F)c5[nH]c(=O)oc5c4)ncc32)cc1C#N [compound 281, 5-[(7R)-8-(4,4-difluorocyclohexyl)-2-[(4-fluoro-2-oxo-2,3-dihydro-1,3-benzoxazol-6-yl)amino]-7-methyl-6-oxo-7,8-dihydropteridin-5(6H)-yl]-2-methoxybenzonitrile] | ≤ 100 |
| C[C@@H]1C(=O)N(c2ccc(N3CCOCC3)nc2)c2cnc(Nc3cc(F)c4[nH]ncc4c3)nc2N1C1CCC(C)(C)CC1 [Example 213, (7R)-8-(4,4-dimethylcyclohexyl)-2-[(7-fluoro-1H-indazol-5-yl)amino]-7-methyl-5-[6-(morpholin-4-yl)pyridin-3-yl]-7,8-dihydropteridin-6(5H)-one] | ≤ 100 |
| COc1ccc(N2C(=O)[C@@H](C)N([C@H]3CC[C@H](OC)CC3)c3nc(Nc4ccc5[nH]c(=O)oc5c4)ncc32)cc1C#N [compound 235, 2-methoxy-5-[(7R)-8-(trans-4-methoxycyclohexyl)-7-methyl-6-oxo-2-[(2-oxo-2,3-dihydro-1,3-benzoxazol-6-yl)amino]-7,8-dihydropteridin-5(6H)-yl]benzonitrile] | ≤ 100 |
